Read-outs that look alike come from different tables or passages of the source.
What was measured:
[1] = system: isolated rat liver mitochondria; assay: Oxygen consumption, Clark-type oxygen electrode; format: biochemical; settings: for I-ADP, % of control (O2 consumption rate): glutamate/malate driven state 3 respiration; for I-ADP, % of control (O2 consumption rate) / I-sub, % of control (O2 consumption rate) / II-ADP, % of control (O2 consumption rate) / II-sub, % of control (O2 consumption rate): isolated rat liver mitochondria; for I-sub, % of control (O2 consumption rate): glutamate/malate driven state 4 respiration; for II-ADP, % of control (O2 consumption rate): succinate-driven state 3 respiration; for II-sub, % of control (O2 consumption rate): succinate-driven state 4 respiration
HepG2 cells [2] = settings: cited from earlier work
[3] = system: HeLa cells expressing YFP-Parkin; assay: Parkin translocation assay; format: cell-based, human; settings: HeLa cells stably expressing YFP-Parkin; treated for 2 h
HepG2 cells [4] = assay: Intracellular ATP content (cell viability) assay; format: cell-based, human; settings: Homo sapiens, HepG2, 40 h treatment, mean±SD of three experiments
[5] = system: Caenorhabditis elegans (Bristol N2); assay: C. elegans larval development and growth assay
HepG2 cells [6] = assay: ROS-Glo hydrogen peroxide (ROS) assay; format: cell-based, human; settings: Homo sapiens, HepG2; 2 h treatment; mean±SD of three experiments; read-out: ROS (HepG2) EC50
rat primary hepatocytes = assay: MMP assay in rat primary hepatocytes; settings: for IC50: Rattus norvegicus, Hepatocyte
[7] = system: p53 (p53-bla HCT-116 cells); assay: p53 β-lactamase reporter gene assay; format: cell-based, human; settings: Homo sapiens; 16 h incubation; mean±SD of three experiments
HepG2 cells [8] = assay: cells; settings: Homo sapiens
[9] = system: Caenorhabditis elegans strain PE255; assay: In vivo C. elegans ATP status assay
[10] = system: Nrf2/ARE (ARE-bla HepG2 cells); assay: ARE β-lactamase reporter gene assay; format: cell-based, human; settings: Homo sapiens, HepG2; 16 h incubation; mean±SD of three experiments; read-out: ARE (HepG2) EC50
hNSC = assay: MMP assay in human neural stem cells (hNSC); format: cell-based; settings: Homo sapiens, Neural stem cell; 1 h treatment; fresh re-sourced stocks; mean±SD of three experiments; read-out: hNSC IC50 (MMP)

Cc1cc(O)c2c(c1)C(=O)c1cc(O)cc(O)c1C2=O [Emodin]
I-ADP, % of control (O2 consumption rate) ([1]; 0.16 µM): 93 (34.5) % of control
I-sub, % of control (O2 consumption rate) ([1]; 0.16 µM): 102 (11.0) % of control
II-ADP, % of control (O2 consumption rate) ([1]; 0.16 µM): 94 (59.1) % of control
II-sub, % of control (O2 consumption rate) ([1]; 0.16 µM): 110 (20.4) % of control
I-ADP, % of control (O2 consumption rate) ([1]; 0.8 µM): 98 (36.6) % of control
I-sub, % of control (O2 consumption rate) ([1]; 0.8 µM): 120 (13.0) % of control
II-ADP, % of control (O2 consumption rate) ([1]; 0.8 µM): 94 (59.4) % of control
II-sub, % of control (O2 consumption rate) ([1]; 0.8 µM): 114 (21.1) % of control
I-ADP, % of control (O2 consumption rate) ([1]; 4 µM): 110 (41.0) % of control
I-sub, % of control (O2 consumption rate) ([1]; 4 µM): 232 (25.1) % of control
II-ADP, % of control (O2 consumption rate) ([1]; 4 µM): 84 (53.2) % of control
II-sub, % of control (O2 consumption rate) ([1]; 4 µM): 144 (26.8) % of control
I-ADP, % of control (O2 consumption rate) ([1]; 20 µM): 144 (53.6) % of control
I-sub, % of control (O2 consumption rate) ([1]; 20 µM): 540 (58.3) % of control
II-ADP, % of control (O2 consumption rate) ([1]; 20 µM): 81 (51.3) % of control
II-sub, % of control (O2 consumption rate) ([1]; 20 µM): 198 (36.7) % of control
I-ADP, % of control (O2 consumption rate) ([1]; 100 µM): 59 (30.1) % of control
I-sub, % of control (O2 consumption rate) ([1]; 100 µM): 165 (35.4) % of control
II-ADP, % of control (O2 consumption rate) ([1]; 100 µM): 33 (19.6) % of control
II-sub, % of control (O2 consumption rate) ([1]; 100 µM): 67 (23.4) % of control
Potential Mechanism ([1]; mitochondrial respiration in isolated rat liver mitochondria, Clark type oxygen electrode, over tested concentrations): Uncoupler at low concentrations (4-20 µM), and Uncoupler + inhibitor at high concentrations (100 µM)
MMP assays efficacy (%) qHTS-HepG2 (HepG2 cells [2]): -97±5%
IC50 (HepG2 cells [2]; read-out: MMP assays IC50 (µM) qHTS-HepG2): 1.33 ± 0.78 µM
Parkin recruitment [3]: Active
IC50 (HepG2 cells [4]; 5 mM glucose, read-out: ATP (HepG2, glucose) IC50): 43 ± 4.95 µM
IC50 (HepG2 cells [4]; 10 mM galactose, read-out: ATP (HepG2, galactose) IC50): 39.7 ± 2.69 µM
EXT: mean difference in nematode size relative to plate controls ([5]; 0.5 µM): 0.07129
EXT: mean difference in nematode size relative to plate controls ([5]; 1 µM): 0.003832
EXT: mean difference in nematode size relative to plate controls ([5]; 5 µM): -0.0304
EXT: mean difference in nematode size relative to plate controls ([5]; 10 µM): 0.01596
EXT: mean difference in nematode size relative to plate controls ([5]; 25 µM): 0.07038
EXT: mean difference in nematode size relative to plate controls ([5]; 50 µM): 0.04376
EXT: mean difference in nematode size relative to plate controls ([5]; 100 µM): -0.01346
effect on larval growth (in words) ([5]; 0.5–100μM, 48 h exposure): did not affect growth
EC50 (HepG2 cells [6]): 5.24 ± 1.72 µM
Rat hepatocytes (efficacy) (MMP) (rat primary hepatocytes; % of positive control, mean±SD of three experiments): −106±9.55%
IC50 (rat primary hepatocytes; 1 h, read-out: Rat hepatocytes IC50 (MMP)): 15.8 ± 1.07 µM
IC50 (rat primary hepatocytes; read-out: MMP assays IC50 (µM) Rat Hepatocytes): 6.28 ± 4.57 µM
MMP assays efficacy (%) Rat Hepatocytes (rat primary hepatocytes; rat hepatocytes, mean ± SD of three experiments): -101±17%
EC50 [7]: 14.9 ± 6.5 µM
IC50 (HepG2 cells [8]; HepG2, 1 h, read-out: HepG2 IC50 Galactose (MMP)): 8 ± 1.44 µM
IC50 (HepG2 cells [8]; HepG2, 1 h, read-out: HepG2 IC50 Glucose (MMP)): 6.14 ± 1.29 µM
IC50 (HepG2 cells [8]; HepG2, read-out: MMP assays IC50 (µM) HepG2): 2.51 µM
Emax (HepG2 cells [8]; HepG2, read-out: MMP assays efficacy (%) HepG2): 104%
LUM: mean difference in luminescence (ATP content) relative to plate controls ([9]; 0.5 µM): 0.08724
LUM: mean difference in luminescence (ATP content) relative to plate controls ([9]; 1 µM): 0.09663
LUM: mean difference in luminescence (ATP content) relative to plate controls ([9]; 5 µM): 0.2419
LUM: mean difference in luminescence (ATP content) relative to plate controls ([9]; 10 µM): 0.4641
LUM: mean difference in luminescence (ATP content) relative to plate controls ([9]; 25 µM): 0.5201
LUM: mean difference in luminescence (ATP content) relative to plate controls ([9]; 50 µM): 0.576
LUM: mean difference in luminescence (ATP content) relative to plate controls ([9]; 75 µM): 0.5532
LUM: mean difference in luminescence (ATP content) relative to plate controls ([9]; 100 µM): 0.7699
effect on ATP content (in words) ([9]; 0.5–100μM, 24 h exposure): statistically significant decreases in ATP content
minimal effective concentration ([9]; Caenorhabditis elegans, read-out: LEC LUM: lowest effect concentration for luminescence, a measure of nematode ATP content): 25 µM
EC50 [10]: 10.5 ± 1.45 µM
IC50 (hNSC): 1.09 ± 0.56 µM
